{"source": "patent US4036979A", "about": "“Compositions containing 4,5,6,7-tetrahydrobenz[b]thien-4-yl-ureas or derivatives and methods of enhancing growth rate” (American Cyanamid Company, priority 1976, dated 1977)", "key": {"[1]": {"experiment": "Chick tests: growth promotion and feed/gain, 13 days, compound in basal diet", "format": "in vivo, chicks", "details": "for Average 13-day Chick/Gain (g), AV. / Average 13-day Feed/Gain, AV.: average of 4 experiments; for Average 13-day Chick/Gain / Average 13-day Feed/Gain: experiments 1928, 1929, 1930, 1931; for Percent Improvement (13-day chick gain) / Percent Improvement (13-day feed/gain): vs control", "protocol": "The following tests were conducted to evaluate the ability of 4,5,6,7-tetrahydrobenzo[b]thien-4-ylurea to promote growth in chicks.\nIn these tests day-old chicks are placed in heated cages and given feed and water ad libitum. In each test there are 5 male and 5 female chicks per cage and three cages per treatment are used. Treatments consist of a basal diet plus 1,3 or 9 ppm. of test compound. The chicks are weighed at the beginning and end of the experiment. Feed consumption is determined for the experimental period which is 13 days beginning when the chicks are one day old."}, "[2]": {"experiment": "Growth enhancement and feed efficiency in sheep given an implant containing test compound (six weeks)", "format": "in vivo, sheep (Wether lambs)", "details": "for Average 6-Week Feed/Gain per Pen, AV. / Average 6-Week Weight Gain (kg.)/Lamb, AV.: average of 6 replications; for Average 6-Week Feed/Gain per Pen / Average 6-Week Weight Gain (kg.)/Lamb: replications 1 to 6", "text": "To determine the effect of a 4,5,6,7-tetrahydrobenzo[b]thien-4-ylurea compound on sheep, Wether lambs are randomly allotted to pens in groups of six. The sheep are weighed and permitted food and water ad libitum. The feed is weighed daily, and uneaten feed from the previous day is collected and weighed. Test lambs receive the same unmedicated diet as control animals, but test animals receive one or more subcutaneous implants containing test compound at the base of the ear. The formulation of the implant used is given below. At the end of the six-week treatment period, the lambs are again weighed, and total feed consumed is calculated.\nIn these tests, six replicates of six lambs each per treatment are used and each animal receives from about 11 mg. to 105 mg. of test compound."}, "[3]": {"experiment": "Mouse Growth Regulant Tests (12-day weight gain over controls, compound in diet)", "format": "in vivo, CFI female mice", "details": "Mus musculus, feed or water, 288 h; for change in vivo at 200 ppm: 200 ppm in diet; for change in vivo at 400 ppm: 400 ppm in diet", "protocol": "CFI female mice from Carworth Farms are received when they are six weeks old. They are housed ten to a cage in air-conditioned rooms (72° F. to 76° F.) with automatically controlled lights, 14 hours on and 10 hours off. The basal diet used in these studies is Purina Laboratory Chow (see description below), which is supplied ad libitum. Water is also allowed ad libitum.\nThirteen days after arrival, the mice are weighed in groups of ten and assigned at random to the different treatments. Twelve days later the mice are weighed again and the experiment terminated. At least three cages (30 mice) of untreated controls are included in each test. Test data are provided in Tables VI, VII, VIII, and IX below wherein data are reported as percent weight gain over controls. Unless otherwise indicated in these tables, all compounds tested were dl-racemic mixtures. The following is a description of the diet to which the growth promoting compounds were added."}, "[4]": {"experiment": "Growth enhancement and feed efficiency improvement in sheep fed levels of test compounds (six weeks)", "format": "in vivo, sheep (Wether lambs)", "details": "for Average Daily Gain (kg)/Lamb, av. / Six-Week Feed/Gain, av.: average of 5 replications; for Average Daily Gain (kg)/Lamb / Six-Week Feed/Gain: replications 1 to 5", "text": "To determine the effect of feeding experimental compounds on sheep performance, Wether lambs are randomly allotted to pens in groups of six. The sheep are weighed and permitted feed and water ad libitum. The feed is weighed daily, and uneaten feed from the previous day is collected and weighed. Test lambs receive the same diet as control animals but with the addition of experimental compound at a concentration of either 15 or 60 ppm. At the end of the six-week treatment period, the lambs are again weighed, and total feed is calculated.\nIn these tests, five replicates of six lambs each per treatment are used."}}, "note": "Where “and” joins values, the source holds several entries; their conditions need not be identical. Equal values may be shown once."}
{"smiles": "NC(=O)NC1CCCc2sccc21", "note": "(centres unmarked) [4,5,6,7-tetrahydrobenzo[b]thien-4-ylurea]", "values": [{"measurement": "Average 13-day Chick/Gain (g), AV.", "setting": "[1]; 1 ppm", "value": 189, "unit": "g"}, {"measurement": "Average 13-day Feed/Gain, AV.", "setting": "[1]; 1 ppm", "value": 1.46}, {"measurement": "Average 13-day Chick/Gain", "setting": "[1]; 1 ppm", "value": "181 g and 193 g and 182 g and 200 g"}, {"measurement": "Average 13-day Feed/Gain", "setting": "[1]; 1 ppm", "value": "1.48 and 1.45 and 1.49 and 1.44"}, {"measurement": "Percent Improvement (13-day chick gain)", "setting": "[1]; 1 ppm", "value": 3.3, "unit": "%"}, {"measurement": "Percent Improvement (13-day feed/gain)", "setting": "[1]; 1 ppm", "value": 2.7, "unit": "%"}, {"measurement": "Average 13-day Chick/Gain (g), AV.", "setting": "[1]; 3 ppm", "value": 195, "unit": "g"}, {"measurement": "Average 13-day Feed/Gain, AV.", "setting": "[1]; 3 ppm", "value": 1.43}, {"measurement": "Average 13-day Chick/Gain", "setting": "[1]; 3 ppm", "value": "199 g and 186 g and 197 g and 198 g"}, {"measurement": "Average 13-day Feed/Gain", "setting": "[1]; 3 ppm", "value": "1.47 and 1.40 and 1.44"}, {"measurement": "Percent Improvement (13-day chick gain)", "setting": "[1]; 3 ppm", "value": 6.6, "unit": "%"}, {"measurement": "Percent Improvement (13-day feed/gain)", "setting": "[1]; 3 ppm", "value": 4.7, "unit": "%"}, {"measurement": "Average 13-day Chick/Gain (g), AV.", "setting": "[1]; 9 ppm", "value": 193, "unit": "g"}, {"measurement": "Average 13-day Feed/Gain, AV.", "setting": "[1]; 9 ppm", "value": 1.44}, {"measurement": "Average 13-day Chick/Gain", "setting": "[1]; 9 ppm", "value": "190 g and 198 g and 191 g"}, {"measurement": "Average 13-day Feed/Gain", "setting": "[1]; 9 ppm", "value": "1.45 and 1.46 and 1.40"}, {"measurement": "Percent Improvement (13-day chick gain)", "setting": "[1]; 9 ppm", "value": 5.5, "unit": "%"}, {"measurement": "Percent Improvement (13-day feed/gain)", "setting": "[1]; 9 ppm", "value": 4.0, "unit": "%"}, {"measurement": "improvement of feed utilization over untreated controls", "setting": "[2]; 11 mg. or 99 mg. implanted, six weeks", "value": "about 5%"}, {"measurement": "increase in weight gain over untreated controls", "setting": "[2]; 11 mg. or 99 mg. implanted, six weeks after implantation", "value": "~10", "unit": "%"}, {"measurement": "Average 6-Week Feed/Gain per Pen, AV.", "setting": "[2]; 1 drug implant", "value": 7.57}, {"measurement": "Average 6-Week Weight Gain (kg.)/Lamb, AV.", "setting": "[2]; 1 drug implant", "value": 8.86, "unit": "kg"}, {"measurement": "Average 6-Week Feed/Gain per Pen", "setting": "[2]; 1 drug implant", "value": "6.63 and 6.58 and 7.41 and 8.21 and 8.05 and 8.49"}, {"measurement": "Average 6-Week Weight Gain (kg.)/Lamb", "setting": "[2]; 1 drug implant", "value": "11.25 kg and 9.32 kg and 9.20 kg and 8.63 kg and 8.05 kg and 6.68 kg"}, {"measurement": "Average 6-Week Feed/Gain per Pen, AV.", "setting": "[2]; 9 drug implants", "value": 7.49}, {"measurement": "Average 6-Week Weight Gain (kg.)/Lamb, AV.", "setting": "[2]; 9 drug implants", "value": 8.69, "unit": "kg"}, {"measurement": "Average 6-Week Feed/Gain per Pen", "setting": "[2]; 9 drug implants", "value": "6.51 and 6.75 and 7.80 and 8.38 and 7.56 and 7.97"}, {"measurement": "Average 6-Week Weight Gain (kg.)/Lamb", "setting": "[2]; 9 drug implants", "value": "10.83 kg and 9.60 kg and 8.75 kg and 7.20 kg and 8.53 kg"}, {"measurement": "change in vivo at 50 ppm", "setting": "[3]; Table VI, 50 ppm in diet", "value": 50.1, "unit": "%"}, {"measurement": "change in vivo at 200 ppm", "setting": "[3]; Table VI", "value": 134, "unit": "%"}, {"measurement": "change in vivo at 400 ppm", "setting": "[3]; Table VI", "value": 120, "unit": "%"}, {"measurement": "Average Daily Gain (kg)/Lamb, av.", "setting": "[4]; 15 ppm in feed", "value": 0.186, "unit": "kg"}, {"measurement": "Six-Week Feed/Gain, av.", "setting": "[4]; 15 ppm in feed", "value": 6.611}, {"measurement": "Average Daily Gain (kg)/Lamb", "setting": "[4]; 15 ppm in feed", "value": "0.190 kg and 0.187 kg and 0.186 kg and 0.174 kg and 0.195 kg"}, {"measurement": "Six-Week Feed/Gain", "setting": "[4]; 15 ppm in feed", "value": "6.777 and 6.174 and 6.158 and 7.626 and 6.319"}, {"measurement": "Average Daily Gain (kg)/Lamb, av.", "setting": "[4]; 60 ppm in feed", "value": 0.208, "unit": "kg"}, {"measurement": "Six-Week Feed/Gain, av.", "setting": "[4]; 60 ppm in feed", "value": 6.148}, {"measurement": "Average Daily Gain (kg)/Lamb", "setting": "[4]; 60 ppm in feed", "value": "0.211 kg and 0.250 kg and 0.200 kg and 0.193 kg and 0.189 kg"}, {"measurement": "Six-Week Feed/Gain", "setting": "[4]; 60 ppm in feed", "value": "6.250 and 5.539 and 6.040 and 6.507 and 6.403"}]}
{"smiles": "NC(=O)NC1CCC(=O)c2sccc21", "note": "(centres unmarked) [Compound B, 4,5,6,7-tetrahydro-7-oxobenzo[b]thien-4-ylurea]", "values": [{"measurement": "Average Daily Gain (kg)/Lamb, av.", "setting": "[4]; 15 ppm in feed", "value": 0.202, "unit": "kg"}, {"measurement": "Six-Week Feed/Gain, av.", "setting": "[4]; 15 ppm in feed", "value": 6.216}, {"measurement": "Average Daily Gain (kg)/Lamb", "setting": "[4]; 15 ppm in feed", "value": "0.187 kg and 0.208 kg and 0.218 kg and 0.186 kg and 0.210 kg"}, {"measurement": "Six-Week Feed/Gain", "setting": "[4]; 15 ppm in feed", "value": "6.785 and 6.067 and 5.344 and 6.795 and 6.089"}, {"measurement": "Average Daily Gain (kg)/Lamb, av.", "setting": "[4]; 60 ppm in feed", "value": 0.208, "unit": "kg"}, {"measurement": "Six-Week Feed/Gain, av.", "setting": "[4]; 60 ppm in feed", "value": 5.151}, {"measurement": "Average Daily Gain (kg)/Lamb", "setting": "[4]; 60 ppm in feed", "value": "0.216 kg and 0.207 kg and 0.237 kg and 0.189 kg and 0.190 kg"}, {"measurement": "Six-Week Feed/Gain", "setting": "[4]; 60 ppm in feed", "value": "6.116 and 6.263 and 5.144 and 6.723 and 6.506"}]}
{"smiles": "CONC(=O)NC1CCC(O)c2sccc21", "note": "(centres unmarked) [Table VIII: O,H,OCH3, 1-methoxy-3-(7-hydroxy-4,5,6,7-tetrahydrobenzo[b]thien-4-yl)urea]", "values": [{"measurement": "change in vivo at 400 ppm", "setting": "[3]; Table VIII", "value": 66.7, "unit": "%"}]}
{"smiles": "CC(C)NC(=O)NC1CCC(O)c2sccc21", "note": "(centres unmarked) [Table VIII: O,H,iso-C3H7]", "values": [{"measurement": "change in vivo at 200 ppm", "setting": "[3]; Table VIII", "value": 43.9, "unit": "%"}]}
{"smiles": "CNC(=S)NC1CCC(O)c2sccc21", "note": "(centres unmarked) [Table VIII: S,H,CH3]", "values": [{"measurement": "change in vivo at 400 ppm", "setting": "[3]; Table VIII", "value": 85.1, "unit": "%"}]}
